According to US9296759B2, “Amino-oxazine and amino-dihydrothiazine compounds as beta-secretase modulators and methods of use” (AMGEN INC., priority 2011, dated 2016):

Tests used:
[1] = tested on: Aβ40 in conditioned medium of cells stably expressing Amyloid Precursor Protein (APP); assay: In vitro BACE cell-based assay (HEK cell assay, Aβ40 sandwich ELISA); conditions: average IC50, Aβ40, 24 h incubation
Description: In Vitro BACE Cell-Based Assay
The cell-based assay measures inhibition or reduction of Aβ40 in conditioned medium of test compound treated cells expressing amyloid precursor protein.
Cells stably expressing Amyloid Precursor Protein (APP) were plated at a density of 40K cells/well in 96 well plates (Costar). The cells were cultivated for 24 hours at 37° C. and 5% CO2 in DMEM supplemented with 10% FBS. The test compounds were then added to cells in 10-point dose response concentrations with the starting concentration being either 100 μM or 10 μM. The compounds were diluted from stock solutions in DMSO and the final DMSO concentration of the test compounds on cells was 0.1%. After 24 h of incubation with the test compounds the supernatant conditioned media was collected and the Aβ 40 levels were determined using a sandwich ELISA. The IC50 of the compound was calculated from the percent of control or percent inhibition of Aβ 40 as a function of the concentration of the test compound.
The sandwich ELISA to detect Aβ 40 was performed in 96 well microtiter plates, which were pre-treated with goat anti-rabbit IgG (Pierce). The capture and detecting antibody pair that were used to detect Aβ 40 from cell supernatants were affinity purified pAb40 (Biosource) and biotinylated 6E10 (Signet Labs Inc.), respectively. The optimal concentration for the pAb40 antibody was 3 μg/ml in Superblock/TBS (Pierce) that was supplemented with 0.05% Tween 20 (Sigma).
Cellular supernatants were incubated with the capture antibody for 3 h at 4° C., followed by 3 wash steps in TBS-tween (0.05%). The detecting antibody incubation was for 2 h at 4° C., again followed by the wash steps as described previously. The final readout of the ELISA is Time-Resolved Fluorescence (counts per minute) using Delfia reagents Streptavidin-Europium and Enhancement solutions (Perkin Elmer) and the Victor 2 multilabel counter (Perkin Elmer).

[2] = molecular target: BACE 1 (beta secretase enzyme) (Homo sapiens (Human), UniProt P56817); assay: In vitro enzymatic BACE FRET assay; assay type: biochemical; conditions: average IC50
Description: In Vitro Enzymatic BACE FRET (Fluorescence Resonance Energy Transfer) Assay
The assay buffer used in this screen is 0.05 M acetate, pH 4.2, 10% DMSO final, 100 uM genapol (which is a nonionic detergent, below its Critical Micelle Concentration). […] This assay is effectively started by the addition of FRET substrate (50 nM) and the combination is incubated for one hour. The FRET assay is terminated with by addition of Tris buffer, which raises the pH to neutrality, and the fluorescence is determined. The FRET substrate is a peptide with commercially available fluorophore and quencher, on opposite sides of the BACE cleavage site. Proteolytic cleavage of the FRET substrate releases quenching of fluorescence (excitation […] and […]).

Cathepsin D = Cathepsin D (Homo sapiens (Human), UniProt P07339); assay: In vitro enzymatic Cat D (Cathepsin D) FRET assay; assay type: biochemical; conditions: average IC50
Description: In Vitro Enzymatic Cat D (Cathepsin D) FRET (Fluorescence Resonance Energy Transfer) Assay
Recombinant CathepsinD was expressed in CHO cells. The assay buffer for CathepsinD is 0.05 M citrate pH 3.5, 10% DMSO final, 5 mM CHAPS. […] The assays are effectively started by the addition of different FRET substrates (20 nM for CathepsinD) and the combination is incubated for one hour. The FRET assay is terminated with by addition of Tris buffer, which raises the pH to neutrality, and the fluorescence is determined. The FRET substrate is a peptide with commercially available fluorophore and quencher, on opposite sides of the BACE cleavage site. […] Proteolytic cleavage of the FRET substrate releases quenching of fluorescence (CathepsinD excitation 500 nm and emission 580 nm).

Sequence of BACE 1 (beta secretase enzyme) (P56817 46-501): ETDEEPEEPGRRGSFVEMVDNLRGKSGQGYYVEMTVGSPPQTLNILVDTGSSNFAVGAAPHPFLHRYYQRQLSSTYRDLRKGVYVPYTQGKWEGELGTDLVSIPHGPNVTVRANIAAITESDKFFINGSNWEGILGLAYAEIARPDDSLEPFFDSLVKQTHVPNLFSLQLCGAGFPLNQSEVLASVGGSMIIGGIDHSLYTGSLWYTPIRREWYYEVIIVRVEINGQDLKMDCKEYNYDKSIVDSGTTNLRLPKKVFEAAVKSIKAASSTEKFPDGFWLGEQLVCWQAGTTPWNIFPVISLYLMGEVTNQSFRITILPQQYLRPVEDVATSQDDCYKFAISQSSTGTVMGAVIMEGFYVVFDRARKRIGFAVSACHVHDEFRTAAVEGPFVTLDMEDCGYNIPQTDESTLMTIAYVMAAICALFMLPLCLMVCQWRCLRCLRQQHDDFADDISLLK
Sequence of Cathepsin D (P07339 65-412, species assumed): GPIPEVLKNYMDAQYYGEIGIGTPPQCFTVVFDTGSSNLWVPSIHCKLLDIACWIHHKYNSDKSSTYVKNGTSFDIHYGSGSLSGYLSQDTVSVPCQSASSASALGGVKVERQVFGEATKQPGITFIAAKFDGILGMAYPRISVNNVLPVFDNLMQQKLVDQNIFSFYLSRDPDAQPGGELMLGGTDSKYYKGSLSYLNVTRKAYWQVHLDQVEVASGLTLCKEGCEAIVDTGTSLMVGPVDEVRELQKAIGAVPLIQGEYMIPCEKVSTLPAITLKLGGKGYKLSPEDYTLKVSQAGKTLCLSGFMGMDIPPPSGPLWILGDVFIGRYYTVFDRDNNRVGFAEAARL

| Compound | IC50 [1] [nM] | IC50 [2] [nM] | IC50 (Cathepsin D) [nM] | IC50 ([1]; Homo sapiens, HEK293) [nM] |
| --- | --- | --- | --- | --- |
| CCOc1cccnc1Nc1ccc2c(c1)[C@@]1(CCSC(N)=N1)c1cc(OC)cc(F)c1O2 [Example 33, (4S)-N~2~′-(3-ethoxy-2-pyridinyl)-5′-fluoro-7′-methoxy-5,6-dihydrospiro[1,3-thiazine-4,9′-xanthene]-2,2′-diamine] | 65.9 | 48.6 | 262000 |  |
| NC1=N[C@@]2(CCO1)c1cc(NC(=O)c3ccc(Cl)cn3)ccc1Oc1ncc(C3=CCCOC3)cc12 [Example 35, N-((5S)-2′-amino-3-(5,6-dihydro-2H-pyran-3-yl)-5′,6′-dihydrospiro[chromeno[2,3-b]pyridine-5,4′-[1,3]oxazin]-7-yl)-5-chloro-2-pyridinecarboxamide] |  | 5.1 | > 1650 | 3.3 |
| NC1=N[C@@]2(CCO1)c1cc(NC(=O)c3ccc(Cl)cn3)ccc1Oc1ncccc12 [Example 36, N-((5S)-2′-amino-5′,6′-dihydrospiro[chromeno[2,3-b]pyridine-5,4′-[1,3]oxazin]-7-yl)-5-chloro-2-pyridinecarboxamide] |  | 45.1 | > 400000 | 14.8 |
| NC1=N[C@@]2(CCO1)c1cc(NC(=O)c3ccc(Cl)cc3F)ccc1Oc1ncc(Br)cc12 [Example 37, N-((5S)-2′-amino-3-bromo-5′,6′-dihydrospiro[chromeno[2,3-b]pyridine-5,4′-[1,3]oxazin]-7-yl)-4-chloro-2-fluorobenzamide] |  | 120 | > 400000 | 125 |
| NC1=N[C@@]2(CCO1)c1cc(NC(=O)c3cnc(O)cn3)ccc1Oc1ncc(Br)cc12 [Example 43, N-((5S)-2′-amino-3-bromo-5′,6′-dihydrospiro[chromeno[2,3-b]pyridine-5,4′-[1,3]oxazin]-7-yl)-5-hydroxy-2-pyrazinecarboxamide] |  | 113 | > 4940 | 1660 |
| COc1cnc(C(=O)Nc2ccc3c(c2)[C@@]2(CCOC(N)=N2)c2cc(Br)cnc2O3)cn1 [Example 44, N-((5S)-2′-amino-3-bromo-5′,6′-dihydrospiro[chromeno[2,3-b]pyridine-5,4′-[1,3]oxazin]-7-yl)-5-methoxy-2-pyrazinecarboxamide] |  | 47.6 | > 1650 | 11 |
| N#Cc1ccc(C(=O)Nc2ccc3c(c2)[C@@]2(CCOC(N)=N2)c2cc(Cl)nc(F)c2O3)nc1 [Example 46, N-((5S)-2′-amino-3-chloro-1-fluoro-5′,6′-dihydrospiro[chromeno[2,3-c]pyridine-5,4′-[1,3]oxazin]-7-yl)-5-cyano-2-pyridinecarboxamide] |  | 7 | > 400000 | 23 |
| NC1=N[C@@]2(CCO1)c1cc(NC(=O)c3cnc(Cl)cn3)ccc1Oc1c2cc(Cl)nc1F [Example 49, N-((5S)-2′-amino-3-chloro-1-fluoro-5′,6′-dihydrospiro[chromeno[2,3-c]pyridine-5,4′-[1,3]oxazin]-7-yl)-5-chloro-2-pyrazinecarboxamide] |  | 16.1 | 323000 | 184 |
| COc1cc(F)c2c(c1)[C@]1(CCSC(N)=N1)c1cc(NC(=O)c3cnc(OC)cn3)ccc1O2 [Example 50, N-((4S)-2-amino-5′-fluoro-7′-methoxy-5,6-dihydrospiro[1,3-thiazine-4,9′-xanthen]-2′-yl)-5-methoxy-2-pyrazinecarboxamide] |  | 40.5 | > 400000 | 46.5 |
| N#Cc1ccc(C(=O)Nc2ccc3c(c2)[C@@]2(CCOC(N)=N2)c2cc(C4=CCCOC4)nc(F)c2O3)nc1 [Example 52, N-((5S)-2′-amino-3-(5,6-dihydro-2H-pyran-3-yl)-1-fluoro-5′,6′-dihydrospiro[chromeno[2,3-c]pyridine-5,4′-[1,3]oxazin]-7-yl)-5-cyano-2-pyridinecarboxamide] |  | 2 | 132000 | 0.5 |
| COc1nc(C2CC2)cc2c1Oc1ccc(NC(=O)c3ccc(Cl)cn3)cc1[C@@]21CCOC(N)=N1 [Example 53, N-((5S)-2′-amino-3-cyclopropyl-1-methoxy-5′,6′-dihydrospiro[chromeno[2,3-c]pyridine-5,4′-[1,3]oxazin]-7-yl)-5-chloro-2-pyridinecarboxamide] |  | 12.9 | > 400000 | 22.7 |
| COc1cnc(C(=O)Nc2ccc3c(c2)[C@]2(CCSC(N)=N2)c2cc(Cl)nc(F)c2O3)cn1 [Example 55, N-((5R)-2′-amino-3-chloro-1-fluoro-5′,6′-dihydrospiro[chromeno[2,3-c]pyridine-5,4′-[1,3]thiazin]-7-yl)-5-methoxy-2-pyrazinecarboxamide] |  | 913 | 69900 | 3090 |
| COc1cnc(C(=O)Nc2ccc3c(c2)[C@@]2(CCSC(N)=N2)c2cc(Cl)nc(F)c2O3)cn1 [Example 56, N-((5S)-2′-amino-3-chloro-1-fluoro-5′,6′-dihydrospiro[chromeno[2,3-c]pyridine-5,4′-[1,3]thiazin]-7-yl)-5-methoxy-2-pyrazinecarboxamide] |  | 6.2 | > 400000 | 167 |
| COc1cc(F)c2c(c1)[C@]1(CCOC(N)=N1)c1cc(Nc3ncccc3OCc3ccccc3)ccc1O2 [Example 57, (4S)-N~2~′-(3-(benzyloxy)-2-pyridinyl)-5′-fluoro-7′-methoxy-5,6-dihydrospiro[1,3-oxazine-4,9′-xanthene]-2,2′-diamine] | 3510 | 7290 | 400000 |  |
| COc1cnc(C(=O)Nc2ccc3c(c2)[C@@]2(CCSC(N)=N2)c2cc(C4=CCOCC4)cc(F)c2O3)cn1 [Example 60, N-((4S)-2-amino-7′-(3,6-dihydro-2H-pyran-4-yl)-5′-fluoro-5,6-dihydrospiro[1,3-thiazine-4,9′-xanthen]-2′-yl)-5-methoxy-2-pyrazinecarboxamide] |  | 6.2 | 174000 | 4.3 |
| COc1nc(C2=CCOCC2)cc2c1Oc1ccc(NC(=O)c3ccc(Cl)cn3)cc1[C@@]21CCOC(N)=N1 [Example 62, N-((5S)-2′-amino-3-(3,6-dihydro-2H-pyran-4-yl)-1-methoxy-5′,6′-dihydrospiro[chromeno[2,3-c]pyridine-5,4′-[1,3]oxazin]-7-yl)-5-chloro-2-pyridinecarboxamide] |  | 7 | 400000 | 3.6 |
| N#Cc1ccc(C(=O)Nc2ccc3c(c2)[C@@]2(CCOC(N)=N2)c2cc(-c4cncc(F)c4)nc(F)c2O3)nc1 [Example 69, N-((5S)-2′-amino-1-fluoro-3-(5-fluoro-3-pyridinyl)-5′,6′-dihydrospiro[chromeno[2,3-c]pyridine-5,4′-[1,3]oxazin]-7-yl)-5-cyano-2-pyridinecarboxamide] |  | 0.6 | 133000 | 0.082 |
| COc1cc(F)c2c(c1)[C@]1(CCOC(N)=N1)c1cc(NC(=O)c3ccc(C#N)cn3)ccc1O2 [Example 74, N-((4S)-2-amino-5′-fluoro-7′-methoxy-5,6-dihydrospiro[1,3-oxazine-4,9′-xanthen]-2′-yl)-5-cyano-2-pyridinecarboxamide] |  | 10.8 | 147000 | 4.6 |
| COc1cc(F)c2c(c1)[C@]1(CCOC(N)=N1)c1cc(NC(=O)c3ccc(Cl)cc3F)ccc1O2 [Example 76, N-((4S)-2-amino-5′-fluoro-7′-methoxy-5,6-dihydrospiro[1,3-oxazine-4,9′-xanthen]-2′-yl)-4-chloro-2-fluorobenzamide] |  | 181 | 400000 | 206 |
